Test results: PMC12084297, “Cytoplasmic connexin43-microtubule interactions promote glioblastoma stem-like cell maintenance and tumorigenicity” (Cell Death & Disease, 2025)

What was measured:
PDX GBM22 tumor [1] = assay: PDX GBM22 tumor growth in mouse flank; format: in vivo, mouse (athymic nude), human GBM22 cells; settings: 300 μM intratumorally every day for 14 days, n = 7 mice per group
Procedure: Animal studies were approved by the Institutional Animal Care and Use Committee (IACUC) of Virginia Tech. Female athymic nude mice (Envigo) aged 6-8 weeks were used for the maintenance and propagation of PDX GBM22 cells. PDX GBM22 tumors were maintained by serial passage in nude mouse flanks as described previously. Briefly, tumors were harvested 14–18 days post-injection and glioblastoma cells were mechanically and enzymatically dissociated. […] After 2 days, tumors were measured and mice were randomly separated into three groups (7 mice per group), and vehicle/control (PBS), JM2-scrambled or JM2 were administered at 300 μM intratumorally every day for 14 days. Tumors were then measured by blinded investigators and harvested for analysis (see section below). Tumor volume was calculated using the formula (length × width^2)/2. […] After 7 days, tumors were measured and mice were randomly separated into three groups; vehicle/control (PBS), JM2-scrambled, and JM2 (3 mice per group). […] Tumor sizes were measured by electronic calipers at different times by blinded investigators, and tumor volume was calculated using the formula (length × width^2)/2.

PDX GBM22 tumor [2] = assay: TUNEL and H&E of GBM22-derived tumor sections; format: in vivo, mouse (athymic nude), human GBM22 cells; settings: GBM22 tumors, 300 μM intratumorally every day for 14 days, harvested after 16 days
Procedure: Tumors were harvested, snap-frozen in Tissue-Tek® O.C.T. compound (Sakura), and stored at −80 °C until sectioning. […] sections were cut using a Leica CM1850 UV cryostat, placed onto Superfrost Plus^TM slides (Fisher Scientific) and fixed in −20 °C acetone for 5 minutes before air drying. Slides were stored at −80 °C prior to labeling. Tumors sections were then rehydrated in PBS for 5 min, permeabilized in 0.1% Triton X-100 in PBS for 1 h at room temperature, and washed four times with PBS (2 x quick, 2 × 5 min) prior to incubating with streptavidin conjugated to Alexa Fluor 647 (Thermo Fisher) diluted in high-salt buffer (0.5 M NaCl, 10 mM Hepes) for 30 min at room temperature. Tumor sections were then washed four times with high-salt buffer (2 x quick, 2 × 10 min), and twice with PBS (2 × 5 min) before using One-step TUNEL In Situ Apoptosis kit (Green Elab Fluor® 488; Elabscience), according to manufacturer’s instructions. Tumor sections were then washed in PBS (3 × 5 min), incubated with DAPI (Thermo Fisher) in PBS for 5 min, and washed again with PBS (4 × 5 min) before the slides were mounted using Prolong Gold Antifade (Thermo Fisher). GBM22-derived tumor sections were analyzed using fluorescence confocal microscopy on a Nikon NIE upright confocal microscope, while LN229/GSC-derived tumor sections were observed using LED illumination microscopy on a Revolve microscope. For hematoxylin and eosin (H&E) staining, tumor sections were stained using a Histo-Tek® SL Slide Stainer (Sakura), and observed using phase contrast microscopy on a Revolve microscope. Investigators were blinded for all image acquisition experiments.

VTC-034 GSCs = assay: Caspase 3/7 activity, VTC-034 GSCs; format: cell-based, human; settings: VTC-034 adherent GSCs, 10, 50 or 100 μM, 48 h, Caspase-Glo 3/7
Procedure: Cells were plated in 96-well plates (2000–5000 cells per well) and treated the following day with TMZ (10, 50, or 100 μM), antennapedia, JM2-scrambled, or JM2 (10, 50, or 100 μM). After 4 days, cell viability was monitored following addition of MTS reagent (Promega) according to manufacturer’s instructions. The absorbance at 490 nm was measured using a SpectraMax i3 or iD3 microplate reader (Molecular Devices). For the caspase 3/7 activity assay, cells were plated in 96-well plates (2000 cells per well) and treated with TMZ or peptides as described above. The activity of caspase 3/7 was measured after 48 h using the Caspase-Glo® 3/7 assay (Promega) following the manufacturer’s instructions. Fold change of caspase 3/7 activity was defined as the ratio of caspase 3/7 luminescence in treated cells compared to controls.

β-actin = target: T1, β-actin (Homo sapiens, UniProt P60709); assay: Cellular thermal shift assay (CETSA), actin negative control; format: binding; settings: VTC-037 GSC lysates, 57 °C, β-actin as negative control
T1 construct: fresh lysates of GSCs prepared in non-denaturing buffer; endogenous in cells; host or cells: VTC-037 patient-derived glioblastoma stem-like cells (lysate)
Procedure: For an initial determination of the melting profile of α- and β- tubulin, fresh lysates of GSCs prepared in non-denaturing buffer were dispensed into 96-well PCR plate in stem cell medium (approximately 10,000 cells/well/50 µl), and then subjected to temperature gradient (37–65 °C) for 20 min. Subsequently, centrifugation was performed at 14,000 rpm to sediment the unstable protein content. Supernatant was collected and SDS-PAGE gel was run, and immunodetection was performed to detect α- and β- tubulin using specific primary antibodies described above. A rabbit antibody against β-actin (Cell Signaling Technology; 4970) was used as negative control. Band intensities were quantified on LI-COR C-DiGit Blot Scanner, and subsequently Tagg(50) and Tagg(75) values were calculated for α- and β- tubulin. In a subsequent run, fresh lysates of GSCs were treated at various doses with 3-fold dilutions (222.2, 74.0, 24.7, 8.2 and 2.7 nM) of peptides JM2 and JM2-scrambled, together with DMSO as control, for 1 h. Samples were then subjected to heat challenge at 57 °C for 20 min, and unstable protein was removed by centrifugation step. Following an immunoblotting step, band intensities of the stable tubulin was quantified, and normalized to DMSO control. EC50 values of engagement for both peptide with α- and β- tubulin were subsequently calculated.

| Sequence | GBM22-derived tumor growth (PDX GBM22 tumor [1]) | Cell death in tumor sections (TUNEL) (PDX GBM22 tumor [2]) | Apoptosis induction (caspase 3/7 activity) (VTC-034 GSCs) | EC50 target engagement, actin (negative control) (β-actin) | Cell death in tumor sections (H&E) (PDX GBM22 tumor [2]) |
| --- | --- | --- | --- | --- | --- |
| GSDVFKRKFVDRKVG [JM2-scrambled, reference compound] | observed GBM22-derived tumor formation | no significant correlation was observed | inefficient in inducing apoptosis | no EC50 was detected | – |
| VFFKGVKDRVKGRSD [JM2] | did not detect any significant tumor growth | Positive JM2 signal within the tumors correlated with an increase in cell death | increased caspase 3/7 activity in these cells in a dose-dependent manner | no EC50 was detected | Increased cell death within JM2-treated tumors was further confirmed |
